PubChem BioAssay AID2060886 (Molecular Pharmacology Branch, DTP, NCI, 2025)

Test system: 653999-131-R-J2-PDC complex spheroids, growth inhibition
Assay: Anticancer human tumor 653999-131-R-J2-PDC patient-derived lung adenocarcinoma cell line growth inhibition [RAS]
Details: for IC50: curve of first compound; for viability, T/C: stronger effect = lower value; active = viability on the fitted dose curve at most 10% of control; inactive = the rest
In short: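 Tumour cells grown as complex spheroids with HUVEC endothelial cells and mesenchymal stem cells, treated with RAS pathway inhibitor combinations. Each agent spans half-log steps from near clinical Cmax, or 10 microM where Cmax is unknown.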

[1] = second compound 0.000949 µM, first compound 0.0316 µM
[2] = second compound 0.000949 µM, first compound 0.1 µM
[3] = second compound 0.000949 µM, first compound 0.316 µM
[4] = second compound 0.000949 µM, first compound 1 µM
[5] = second compound 0.000949 µM, first compound 3.16 µM
[6] = second compound 0.000949 µM, first compound 10 µM
[7] = second compound 0.003 µM, first compound 0.0316 µM
[8] = second compound 0.003 µM, first compound 0.1 µM
[9] = second compound 0.003 µM, first compound 0.316 µM
[10] = second compound 0.003 µM, first compound 1 µM
[11] = second compound 0.003 µM, first compound 3.16 µM
[12] = second compound 0.003 µM, first compound 10 µM
[13] = second compound 0.00949 µM, first compound 0.0316 µM
[14] = second compound 0.00949 µM, first compound 0.1 µM
[15] = second compound 0.00949 µM, first compound 0.316 µM
[16] = second compound 0.00949 µM, first compound 1 µM
[17] = second compound 0.00949 µM, first compound 3.16 µM
[18] = second compound 0.00949 µM, first compound 10 µM
[19] = second compound 0.03 µM, first compound 0.0316 µM
[20] = second compound 0.03 µM, first compound 0.1 µM
[21] = second compound 0.03 µM, first compound 0.316 µM
[22] = second compound 0.03 µM, first compound 1 µM
[23] = second compound 0.03 µM, first compound 3.16 µM
[24] = second compound 0.03 µM, first compound 10 µM
[25] = second compound 0.0949 µM, first compound 0.0316 µM
[26] = second compound 0.0949 µM, first compound 0.1 µM
[27] = second compound 0.0949 µM, first compound 0.316 µM
[28] = second compound 0.0949 µM, first compound 1 µM
[29] = second compound 0.0949 µM, first compound 3.16 µM
[30] = second compound 0.0949 µM, first compound 10 µM
[31] = second compound 0.3 µM, first compound 0.0316 µM
[32] = second compound 0.3 µM, first compound 0.1 µM
[33] = second compound 0.3 µM, first compound 0.316 µM
[34] = second compound 0.3 µM, first compound 1 µM
[35] = second compound 0.3 µM, first compound 3.16 µM
[36] = second compound 0.3 µM, first compound 10 µM
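Note: spheroids exposed to the agents for seven days before the readout.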

Cc1nc(N2CCC3(CC2)COC(C)C3N)c(CO)nc1Sc1ccnc(N)c1Cl (stereo unspecified) + CCn1c(-c2cccnc2C(C)OC)c2c3cc(ccc31)N1CCOC(CC(NC(=O)C(C(C)C)N(C)C(=O)C3(F)CCN(C(=O)C#CC(C)(C)N(C)C)CC3)C(=O)N3CCCC(N3)C(=O)OCC(C)(C)C2)C1
inactive: viability, T/C [1] 85.9% | viability, T/C [2] 87.6% | viability, T/C [3] 81.8% | viability, T/C [4] 67.6% | viability, T/C [5] 81.7% | viability, T/C [6] 78.9% | viability, T/C [7] 103% | viability, T/C [8] 98.2% | viability, T/C [9] 83.5% | viability, T/C [10] 70.4% | viability, T/C [11] 78.6% | viability, T/C [12] 80.3% | viability, T/C [13] 96% | viability, T/C [14] 71% | viability, T/C [15] 84.8% | viability, T/C [16] 87% | viability, T/C [17] 75.2% | viability, T/C [18] 81.2% | viability, T/C [19] 89.6% | viability, T/C [20] 76.8% | viability, T/C [21] 83.6% | viability, T/C [22] 75.8% | viability, T/C [23] 83.2% | viability, T/C [24] 76.8% | viability, T/C [25] 92% | viability, T/C [26] 82.2% | viability, T/C [27] 93.6% | viability, T/C [28] 86.5% | viability, T/C [29] 94.4% | viability, T/C [30] 77.4% | viability, T/C [31] 84.1% | viability, T/C [32] 88.3% | viability, T/C [33] 72.4% | viability, T/C [34] 89.7% | viability, T/C [35] 80.3% | viability, T/C [36] 81.7%
> 10000 nM: IC50 (second compound 0.000949 µM) | IC50 (second compound 0.003 µM) | IC50 (second compound 0.00949 µM) | IC50 (second compound 0.03 µM) | IC50 (second compound 0.0949 µM) | IC50 (second compound 0.3 µM)

CC1(C)CCC(Nc2ncc(C(F)(F)F)c(-c3c[nH]c4c(P(C)(C)=O)c(C#N)ccc34)n2)CN1 (stereo unspecified) + C#Cc1c(F)ccc2cc(O)cc(-c3ncc4c(N5CC6CCC(C5)N6)nc(OCC56CCCN5CC(F)C6)nc4c3F)c12
> 300 nM: IC50 (second compound 0.0316 µM) | IC50 (second compound 0.1 µM)
inactive: viability, T/C (second compound 0.0316 µM, first compound 0.000949 µM) 84.7% | viability, T/C (second compound 0.0316 µM, first compound 0.003 µM) 66.3% | viability, T/C (second compound 0.0316 µM, first compound 0.00949 µM) 62.9% | viability, T/C (second compound 0.0316 µM, first compound 0.03 µM) 61.5% | viability, T/C (second compound 0.0316 µM, first compound 0.0949 µM) 55.3% | viability, T/C (second compound 0.0316 µM, first compound 0.3 µM) 55.6% | viability, T/C (second compound 0.1 µM, first compound 0.000949 µM) 69.9% | viability, T/C (second compound 0.1 µM, first compound 0.003 µM) 64.2% | viability, T/C (second compound 0.1 µM, first compound 0.00949 µM) 59% | viability, T/C (second compound 0.1 µM, first compound 0.03 µM) 56.4% | viability, T/C (second compound 0.1 µM, first compound 0.0949 µM) 72.7% | viability, T/C (second compound 0.1 µM, first compound 0.3 µM) 55.6% | viability, T/C (second compound 0.316 µM, first compound 0.000949 µM) 59.6% | viability, T/C (second compound 0.316 µM, first compound 0.003 µM) 48.3% | viability, T/C (second compound 0.316 µM, first compound 0.00949 µM) 46.9% | viability, T/C (second compound 0.316 µM, first compound 0.03 µM) 47.3% | viability, T/C (second compound 0.316 µM, first compound 0.0949 µM) 44.4% | viability, T/C (second compound 0.316 µM, first compound 0.3 µM) 43.5% | viability, T/C (second compound 1 µM, first compound 0.000949 µM) 37.5% | viability, T/C (second compound 1 µM, first compound 0.003 µM) 36.3% | viability, T/C (second compound 1 µM, first compound 0.00949 µM) 37.1% | viability, T/C (second compound 1 µM, first compound 0.03 µM) 38.1% | viability, T/C (second compound 1 µM, first compound 0.0949 µM) 37.7% | viability, T/C (second compound 1 µM, first compound 0.3 µM) 39.3% | viability, T/C (second compound 3.16 µM, first compound 0.000949 µM) 33.8% | viability, T/C (second compound 3.16 µM, first compound 0.003 µM) 26.8% | viability, T/C (second compound 3.16 µM, first compound 0.00949 µM) 21.6% | viability, T/C (second compound 3.16 µM, first compound 0.03 µM) 22.1% | viability, T/C (second compound 3.16 µM, first compound 0.0949 µM) 27.1% | viability, T/C (second compound 3.16 µM, first compound 0.3 µM) 27.4% | viability, T/C (second compound 10 µM, first compound 0.000949 µM) 26.4% | viability, T/C (second compound 10 µM, first compound 0.003 µM) 20.2% | viability, T/C (second compound 10 µM, first compound 0.00949 µM) 16.7% | viability, T/C (second compound 10 µM, first compound 0.03 µM) 14.1% | viability, T/C (second compound 10 µM, first compound 0.0949 µM) 16.9% | viability, T/C (second compound 10 µM, first compound 0.3 µM) 17.4%
< 0.949 nM: IC50 (second compound 1 µM) | IC50 (second compound 3.16 µM) | IC50 (second compound 10 µM)
2.7 nM: IC50 (second compound 0.316 µM)

NC1c2ccccc2OC12CCN(c1cnc3c(N4CCCc5ncccc54)n[nH]c3n1)CC2 (stereo unspecified) + CCn1c(-c2cc(N3CCN(C)CC3)cnc2C(C)OC)c2c3cc(ccc31)-c1csc(n1)CC(NC(=O)C1CC1C)C(=O)N1CCCC(N1)C(=O)OCC(C)(C)C2
> 10000 nM: IC50 (second compound 0.000949 µM)
65.7 nM: IC50 (second compound 0.003 µM)
inactive: viability, T/C [1] 67% | viability, T/C [2] 60.7% | viability, T/C [3] 55.2% | viability, T/C [4] 59.3% | viability, T/C [5] 65.6% | viability, T/C [6] 63.4% | viability, T/C [7] 60.7% | viability, T/C [8] 40.6% | viability, T/C [9] 40.3% | viability, T/C [10] 49.5% | viability, T/C [11] 41.3% | viability, T/C [12] 42.1% | viability, T/C [13] 40.9% | viability, T/C [14] 34% | viability, T/C [15] 28.5% | viability, T/C [16] 33.9% | viability, T/C [17] 24.7% | viability, T/C [18] 24% | viability, T/C [19] 24.1% | viability, T/C [20] 20.3% | viability, T/C [21] 12.9% | viability, T/C [22] 9.46% | viability, T/C [23] 12.2% | viability, T/C [24] 11.1% | viability, T/C [25] 17.6% | viability, T/C [26] 17% | viability, T/C [27] 12.7% | viability, T/C [31] 16.5% | viability, T/C [32] 10.2%
< 31.6 nM: IC50 (second compound 0.00949 µM) | IC50 (second compound 0.03 µM) | IC50 (second compound 0.0949 µM) | IC50 (second compound 0.3 µM)
active: viability, T/C [28] 7.56% | viability, T/C [29] 5.76% | viability, T/C [30] 6.14% | viability, T/C [33] 7.36% | viability, T/C [34] 6.93% | viability, T/C [35] 7.17% | viability, T/C [36] 4.26%
